# Measured values as given in patent publication US20210189342A1, “COMPOSITIONS AND METHODS FOR MODULATING MONOCYTE AND MACROPHAGE INFLAMMATORY PHENOTYPES AND IMMUNOTHERAPY USES THEREOF” (Verseau Therapeutics, Inc., priority 2018, published 2021).
# Tested on: TBXAS1
# Assay: siRNA dose response, TBXAS1 mRNA knockdown, bDNA Assay
# Format: cell-based, human
# Conditions: A549, 24 hr
# Description: (§1) Dose response curves for siRNAs were generated in vitro using a variety of cell lines according to Table 4.
# (§2) Briefly, cells were seeded in 96-well plates and reverse transfected with siRNA, Lipofectamine® 2000 (0.5 uL/well; ThermoFisher), and, in some cases, a reporter plasmid (50 ng/well). The reporter plasmid (psiCHECK™-2, Promega) encoded both firefly luciferase and the gene of interest fused to renilla luciferase; silencing of the gene of interest results in proportional silencing of renilla luciferase but leaves firefly luciferase unaffected as an internal control.
# (§3) After 24 hr incubation at 37° C., mRNA knockdown was measured using an endpoint assay. For targets without a reporter plasmid, a branched DNA (bDNA) assay was performed according to the manufacturer's instructions (QuantiGene® Singleplex Gene Expression Assay, ThermoFisher) to measure both the target gene and GAPDH (housekeeping gene) mRNA. Data are plotted as siRNA concentration (nM) vs. remaining mRNA (ratio of target gene to GAPDH, normalized to mock siRNA-transfected cells). For targets with a reporter plasmid, a Dual-Glo® Luciferase Assay was performed according to the manufacturer's instructions (Promega) to measure firefly and renilla luciferase expression. Data are plotted as siRNA concentration (nM) vs. remaining mRNA (ratio of renilla to firefly luminescence, normalized to mock siRNA-transfected cells).
# (§4) For all dose response curves, a 4-parameter logistic model was applied to determine the IC50 of each siRNA sequence (Table 5 and FIG. 2). Data shown in Table 5 and FIG. 2 represent the mean of quadruplicates, +/−standard deviation.
row,Substance,IC50
1,"XD-10492: siRNA targeting TBXAS1 (sense 5'-gcccGGAuuuuGcccAAuAdTsdT-3'; antisense 5'-uAUUGGGcAAAAUCCGGGCdTsdT-3'; RNA with 2'-O-methyl and phosphorothioate modifications, case key not given here, as printed in the source, key not given here)",1.44 nM
2,"XD-10490: siRNA targeting TBXAS1 (sense 5'-gccGAcAGcGuucuGuuuudTsdT-3'; antisense 5'-AAAAcAGAACGCUGUCGGCdTsdT-3'; RNA with 2'-O-methyl and phosphorothioate modifications, case key not given here, as printed in the source, key not given here)",0.573 nM
3,"XD-10493: siRNA targeting TBXAS1 (sense 5'-ggAuuuuGcccAAuAAGAAdTsdT-3'; antisense 5'-UUCUuAUUGGGcAAAAUCCdTsdT-3'; RNA with 2'-O-methyl and phosphorothioate modifications, case key not given here, as printed in the source, key not given here)",0.239 nM
4,"XD-10494: siRNA targeting TBXAS1 (sense 5'-caAuAAGAAccGAgAcGAAdTsdT-3'; antisense 5'-UUCGUCUCGGUUCUuAUUGdTsdT-3'; RNA with 2'-O-methyl and phosphorothioate modifications, case key not given here, as printed in the source, key not given here)",0.049 nM
5,"XD-10497: siRNA targeting TBXAS1 (sense 5'-ccAuGGGcGuGcAaGAcuudTsdT-3'; antisense 5'-AAGUCUUGcACGCCcAUGGdTsdT-3'; RNA with 2'-O-methyl and phosphorothioate modifications, case key not given here, as printed in the source, key not given here)",0.137 nM
6,"XD-10491: siRNA targeting TBXAS1 (sense 5'-cuGcAAGcGuuucuucGAAdTsdT-3'; antisense 5'-UUCGAAGAAACGCUUGcAGdTsdT-3'; RNA with 2'-O-methyl and phosphorothioate modifications, case key not given here, as printed in the source, key not given here)",0.048 nM
7,"XD-10498: siRNA targeting TBXAS1 (sense 5'-gcGuGcAAGAcuuuGAcAudTsdT-3'; antisense 5'-AUGUcAAAGUCUUGcACGCdTsdT-3'; RNA with 2'-O-methyl and phosphorothioate modifications, case key not given here, as printed in the source, key not given here)",0.273 nM
8,"XD-10496: siRNA targeting TBXAS1 (sense 5'-agAcGAAcuGAAugGcuuudTsdT-3'; antisense 5'-AAAGCcAUUcAGUUCGUCUdTsdT-3'; as printed in the source, key not given here)",0.061 nM
9,"XD-10495: siRNA targeting TBXAS1 (sense 5'-gaAccGAGAcGAAcuGAAudTsdT-3'; antisense 5'-AUUcAGUUCGUCUCGGUUCdTsdT-3'; RNA with 2'-O-methyl and phosphorothioate modifications, case key not given here, as printed in the source, key not given here)",0.125 nM

# Tested on: EVI2B
# Assay: siRNA dose response, EVI2B mRNA knockdown, bDNA Assay
# Format: cell-based, human
# Conditions: A172, 24 hr
# Description: as §1, §2, §3, §4
row,Substance,IC50
1,"XD-10485: siRNA targeting EVI2B (sense 5'-gucAAAAAuucAccuAGGAdTsdT-3'; antisense 5'-UCCuAGGUGAAUUUUUGACdTsdT-3'; RNA with 2'-O-methyl and phosphorothioate modifications, case key not given here, as printed in the source, key not given here)",1.38 nM
2,"XD-10484: siRNA targeting EVI2B (sense 5'-ccAccAAAGucAuuuGucudTsdT-3'; antisense 5'-AGAcAAAUGACUUUGGUGGdTsdT-3'; RNA with 2'-O-methyl and phosphorothioate modifications, case key not given here, as printed in the source, key not given here)",0.014 nM
3,"XD-10486: siRNA targeting EVI2B (sense 5'-ggAuuuAucuuAGauAcuAdTsdT-3'; antisense 5'-uAGuAUCuAAGAuAAAUCCdTsdT-3'; RNA with 2'-O-methyl and phosphorothioate modifications, case key not given here, as printed in the source, key not given here)",0.225 nM
4,"XD-10487: siRNA targeting EVI2B (sense 5'-cauAcuAAuuGGuguAcuudTsdT-3'; antisense 5'-AAGuAcACcAAUuAGuAUGdTsdT-3'; RNA with 2'-O-methyl and phosphorothioate modifications, case key not given here, as printed in the source, key not given here)",0.156 nM
5,"XD-10489: siRNA targeting EVI2B (sense 5'-cucccAAcucuGAucAAGAdTsdT-3'; antisense 5'-UCUUGAUcAGAGUUGGGAGdTsdT-3'; RNA with 2'-O-methyl and phosphorothioate modifications, case key not given here, as printed in the source, key not given here)",0.013 nM
6,"XD-10481: siRNA targeting EVI2B (sense 5'-cuuuGGGucAAccaAcAcAdTsdT-3'; antisense 5'-UGUGUUGGUUGACCcAAAGdTsdT-3'; RNA with 2'-O-methyl and phosphorothioate modifications, case key not given here, as printed in the source, key not given here)",0.169 nM
7,"XD-10482: siRNA targeting EVI2B (sense 5'-caAccAAcAccAAuAGccAdTsdT-3'; antisense 5'-UGGCuAUUGGUGUUGGUUGdTsdT-3'; RNA with 2'-O-methyl and phosphorothioate modifications, case key not given here, as printed in the source, key not given here)",0.017 nM
8,"XD-10483: siRNA targeting EVI2B (sense 5'-ccAucuGcccGuAcuucuAdTsdT-3'; antisense 5'-uAGAAGuACGGGcAGAUGGdTsdT-3'; RNA with 2'-O-methyl and phosphorothioate modifications, case key not given here, as printed in the source, key not given here)",3.27 nM
9,"XD-10488: siRNA targeting EVI2B (sense 5'-agcuAuAAucAucauuGuAdTsdT-3'; antisense 5'-uAcAAUGAUGAUuAuAGCUdTsdT-3'; RNA with 2'-O-methyl and phosphorothioate modifications, case key not given here, as printed in the source, key not given here)",2.55 nM

# Tested on: CD37
# Assay: siRNA dose response, CD37 mRNA knockdown, bDNA Assay
# Format: cell-based, human
# Conditions: THP-1, 24 hr
# Description: as §1, §2, §3, §4
row,Substance,IC50
1,"XD-09777: siRNA targeting CD37 (sense 5'-guucAuGAcGcucucGAuAdTsdT-3'; antisense 5'-uAUCGAGAGCGUcAUGAACdTsdT-3'; RNA with 2'-O-methyl and phosphorothioate modifications, case key not given here, as printed in the source, key not given here)",0.414 nM
2,"XD-09773: siRNA targeting CD37 (sense 5'-cgAccAAcGAcuccAcAAudTsdT-3'; antisense 5'-AUUGUGGAGUCGUUGGUCGdTsdT-3'; RNA with 2'-O-methyl and phosphorothioate modifications, case key not given here, as printed in the source, key not given here)",0.311 nM
3,"XD-09771: siRNA targeting CD37 (sense 5'-gacGucGuAGAGAaAAccAdTsdT-3'; antisense 5'-UGGUUUUCUCuACGACGUCdTsdT-3'; RNA with 2'-O-methyl and phosphorothioate modifications, case key not given here, as printed in the source, key not given here)",0.388 nM

# Tested on: SELPLG
# Assay: siRNA dose response, SELPLG mRNA knockdown, bDNA Assay
# Format: cell-based, human
# Conditions: THP-1, 24 hr
# Description: as §1, §2, §3, §4
row,Substance,IC50
1,"XD-09265: siRNA targeting SELPLG (sense 5'-aaGcAGAcGGGcAaGuGGAdTsdT-3'; antisense 5'-UCcACUUGCCCGUCUGCUUdTsdT-3'; RNA with 2'-O-methyl and phosphorothioate modifications, case key not given here, as printed in the source, key not given here)",0.486 nM
2,"XD-09266: siRNA targeting SELPLG (sense 5'-aguAcuGAAGAGugAcGGAdTsdT-3'; antisense 5'-UCCGUcACUCUUcAGuACUdTsdT-3'; RNA with 2'-O-methyl and phosphorothioate modifications, case key not given here, as printed in the source, key not given here)",0.207 nM
3,"XD-09264: siRNA targeting SELPLG (sense 5'-accAAAAGAGGucuGuucAdTsdT-3'; antisense 5'-UGAAcAGACCUCUUUUGGUdTsdT-3'; as printed in the source, key not given here)",1.96 nM
